Here are results for seven molecules from patent US20150023887A1, “Antiperspirant Spray Devices and Compositions” (The Procter & Gamble Company, priority 2013, published 2015).

On the data set, the source says:
Solubility may be determined by measuring the amount of light transmittance (a light transmittance value) through a simple mixture of the non-volatile silicone fluid and liquid activation enhancer at the same weight/weight concentrations as in a final antiperspirant composition.
Solubility of a liquid activation enhancer in a non-volatile silicone may be determined by measuring the amount of light transmittance (light transmittance value) through a simple mixture of the non-volatile silicone fluid and liquid activation enhancer at the same weight/weight concentrations as in a final antiperspirant composition.
The Spectronic Genesys 10 Vis utilizes a tungsten-halogen light source and has a spectral bandwidth of 5 nm, a wavelength range of 325 to 1100 nm, accuracy of ±1 nm and a repeatability of ±0.5 nm. Readouts include absorbance, transmittance and concentration. The spectrophotometer is set to 640 nm wavelength and the percent transmittance mode/readout. Polystyrene spectrometer cuvettes having a 1 cm optical light path and transmittance between ˜340 nm and ˜900 nm are used. One suitable example of a spectrometer cuvette is available from VWR International LLC under Catalog #97000-584 having a 2.5 to 4.5 ml capacity. The spectrophotometer is calibrated according to the manufacturer's instructions using a reference cuvette and composition comprised of just the non-volatile silicone fluid of interest. For example, if the test composition comprises 50 centistoke dimethicone and 15% w/w of isopropyl myristate, then the spectrometer is calibrated using a cuvette containing just 50 centistoke dimethicone. Sample cuvettes are filled sufficiently with a test composition of a non-volatile silicone fluid and liquid activation enhancer so that the light path of the spectrophotometer passes through the test composition in the cuvette. The sample cuvettes are shaken well just prior to taking a light transmittance reading.

For the molecule PPG-14 butyl ether, the “solubility in 50 centistoke dimethicone” value is “insoluble in 50 centistoke dimethicone across the 2% to 30% w/w concentration range”. Consider `CCCCCCCCCCCCCCCC(=O)OC(C)C` [isopropyl palmitate], for which the light transmittance value result is recorded as “about 101%”. As to `CCCCCCCCCCCCCC(C)C` [isohexadecane], the light transmittance value entry is given as “about 100%” and the “solubility in 50 centistoke dimethicone” value is “soluble in 50 centistoke dimethicone across the 2% to 30% w/w concentration range”. For the molecule `CCCCCCCCCCC(CO)CCCCCCCC` (centres unmarked) [octyldodecanol], the “solubility in 50 centistoke dimethicone” value was “soluble in the 50 centistoke dimethicone at some (lower) concentrations”. On to `CCCCCCCCCCCCCCCCCC(=O)OCCCC` [butyl stearate], for which the light transmittance value entry is “about 100%”. Turning to `CCCCCCCCCCCCCC(=O)OC(C)C` [isopropyl myristate], the light transmittance value entry is “about 101%”. In the case of mineral oil, the “solubility in 50 centistoke dimethicone” value was “soluble in 50 centistoke dimethicone at some (lower) concentrations”.
